Results: patent US20170107531A1, “ISOLATED NUCLEIC ACIDS AND QU[…] LOCI (QTL) FROM S. HA[…] METHODS OF USE THEREOF FOR […] BACTERIAL SPECK DISEASE IN TOMATO AND OTHER PLANTS” (Boyce Thompson Institute, priority 2015, published 2017)

What was measured:
[1] = tested on: Solyc02g072470 transcript abundance; assay: Solyc02g072470 transcript abundance in leaves after MAMP treatment (qRT-PCR), LA2109; assay type: in vivo, Solanum habrochaites accession LA2109
Procedure: (§1) Two lateral leaflets on the second leaf of 3-week old tomato plants were syringe-infiltrated with 1 uM FlgII-28 ([…]) (SEQ ID NO. 1) (Cal, et al., 2011) or 10 uM Csp22 ([…]) (SEQ ID NO. 2) (Felix and Boller, 2003) and harvested 6 hrs later. Tissue samples were immediately frozen in liquid nitrogen and kept at −80° C. until use. Six-week-old plants were inoculated with 10^5 colony-forming units (CFU)/mL P. syringae pv. tomato T1 by vacuum infiltration for the visual monitoring of disease symptoms and 10^4 CFU/mL for the measurement of bacterial populations. For each replicate, three leaf discs were collected and combined; each experiment involved replicates from three independent plants.
(§2) Leaf tissue was ground in liquid nitrogen and total RNA was extracted with TRIzol reagent following the manufacturer's instructions (Life Technologies, cat. #15596-018). The concentration of total RNA was determined with a Nanodrop spectrophotometer (Thermo Scientific Co.). RNA (lug) was treated with TURBO DNA-free™ Kit (Life Technologies, cat. AM1907M) and tested for DNA contamination by amplifying SlCBL1 (Solyc12g015870) for 25 cycles; no PCR product was detected. The RNA was then used for reverse transcription PCR (RT-PCR). […] 1 μl and 0.4 μl of cDNA templates were used for RT-PCR and quantitative-RT-PCR (qRT-PCR), respectively. […]

[2] = tested on: reactive oxygen species (ROS) in LA2109; conditions: Veluchamy et al., 2014; cited from earlier work
[3] = tested on: Solyc02g072470 transcript abundance; assay: Solyc02g072470 transcript abundance in leaves after MAMP treatment (qRT-PCR), RG-PtoS; assay type: in vivo, tomato (Rio Grande RG-PtoS)
Procedure: as §1, §2

[4] = tested on: reactive oxygen species (ROS) in LA2109; assay: Reactive oxygen species (ROS) elicitation by MAMP peptides, luminescence-based assay; assay type: cell-based, Solanum habrochaites accession LA2109; conditions: for PTI-eliciting activity of synthetic peptide: FIG. 2D, FIGS. 3C-E, also Cai et al., 2011; for ROS elicitation (relative light units): LA2109, FIG. 3C
Procedure: FIG. 3A-FIG. 3E. […] (FIG. 3A) Bacterial speck disease on leaves of LA2109 four days after inoculation with Pst19 or Pst19ΔavrPtoB. (FIG. 3B) Bacterial populations of Pst19 and Pst19ΔavrPtoB in leaves of LA2109. Error bars indicate standard deviation. Testing the possible response of LA2109 to FlgII-28, effector HopAO1, and coronatine. […] ROS was measured as relative light units using a luminescence-based assay. […] Strain NY-T1 was included as a virulent control. All strains were inoculated at 2×10^5 CFU/mL. (FIG. 3E) Coronatine (1.25 nM) was syringe-infiltrated into leaves of LA2109 and Moneymaker (red arrows). Leaves of LA2109 were not observably more sensitive to this phytotoxin.

[5] = 10 uM Csp22, 6 hours after treatment
[6] = 1 uM FlgII-28, 6 hours after treatment, vs 10 mM MgCl2 mock

Substance | PTI-eliciting activity of synthetic peptide [4] | ROS elicitation (relative light units) [4] | further results
AVGTVKWFNAEKGFGFITPDDG (Csp22) | – | – | Effect on Solyc02g072470 transcript abundance [1, 5]: significantly induced; ROS response to Csp22, LA2109 compared to RG-PtoS [2]: higher ROS response; Effect on Solyc02g072470 transcript abundance [3, 5]: no effect
ESTNILQRMRELAVQSRNDSNSATDREA (FlgII-28) | – | – | Increase of Solyc02g072470 transcript abundance [1, 6]: 1.5 fold; Increase of Solyc02g072470 transcript abundance [3, 6]: 4 fold
FlgII-28 from DC3000: synthetic peptide of the FlgII-28 region of Pst strain DC3000 flagellin (SEQ ID NO: 77) (QTMAIKNANDGMSLAQTAEGALQESTNILQRMRELAVQSRNDSNSATDREALNKEFTAMS; FlgII-28 region) | fully active | same level | –
FlgII-28 from NY-T1: FlgII-28 region of NY-T1 flagellin, phenylalanine at position 16 instead of serine (SEQ ID NO: 76) (QTMAIKNANDGMSLAQTAEGALQESTNILQRMRELAVQFRNDSNSSTDRDALNKEFTAMS; FlgII-28 region) | – | inactive | –
FlgII-28 from T1: synthetic peptide of the FlgII-28 region of Pst strain T1 flagellin (SEQ ID NO: 75) (QTMAIKNANDGMSLAQTAEGALQESTNILQRMRELAVQSRNDSNSSTDRDALNKEFTAMS; FlgII-28 region) | fully active | same level | –
